Columns and labels:
[1] = target: T1, human TLR7 (Homo sapiens, UniProt Q9NYK1); experiment: Toll-Like Receptor (TLR) screening assay, TLR7; format: cell-based; details: 10 μM
T1 sequence (Q9NYK1 27-1049): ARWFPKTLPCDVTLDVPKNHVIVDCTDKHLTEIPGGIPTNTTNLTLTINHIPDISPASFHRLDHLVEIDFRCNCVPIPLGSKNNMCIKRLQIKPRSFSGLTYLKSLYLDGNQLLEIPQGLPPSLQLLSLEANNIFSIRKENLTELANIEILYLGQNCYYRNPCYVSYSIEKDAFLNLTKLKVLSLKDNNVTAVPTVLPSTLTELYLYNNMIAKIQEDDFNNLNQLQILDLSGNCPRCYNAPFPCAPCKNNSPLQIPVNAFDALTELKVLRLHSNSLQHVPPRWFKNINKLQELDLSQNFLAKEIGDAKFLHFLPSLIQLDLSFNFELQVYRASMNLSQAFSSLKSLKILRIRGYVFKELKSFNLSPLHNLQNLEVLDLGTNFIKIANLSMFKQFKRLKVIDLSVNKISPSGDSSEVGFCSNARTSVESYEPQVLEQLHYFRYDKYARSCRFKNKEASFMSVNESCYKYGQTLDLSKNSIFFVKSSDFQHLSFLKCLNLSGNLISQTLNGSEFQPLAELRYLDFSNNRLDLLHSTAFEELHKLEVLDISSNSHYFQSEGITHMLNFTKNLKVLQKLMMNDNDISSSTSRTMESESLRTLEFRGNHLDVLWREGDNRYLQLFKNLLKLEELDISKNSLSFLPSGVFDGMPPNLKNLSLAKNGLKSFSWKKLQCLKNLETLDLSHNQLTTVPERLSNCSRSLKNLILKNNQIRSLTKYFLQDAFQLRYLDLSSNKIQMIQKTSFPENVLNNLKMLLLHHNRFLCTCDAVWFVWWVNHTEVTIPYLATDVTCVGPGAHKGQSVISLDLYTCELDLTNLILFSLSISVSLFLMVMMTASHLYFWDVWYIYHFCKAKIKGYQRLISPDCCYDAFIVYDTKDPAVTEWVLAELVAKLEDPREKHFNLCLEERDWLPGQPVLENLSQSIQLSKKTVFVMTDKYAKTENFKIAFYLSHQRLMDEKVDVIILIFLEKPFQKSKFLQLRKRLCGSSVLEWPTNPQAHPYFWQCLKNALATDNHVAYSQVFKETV

[2] = tested on: human toll-like receptors (TLR); experiment: Toll-like receptor test, overall statement; format: cell-based; details: 10 μM
Source text: While the role of HMGB1 in cancer biology is complex, the influence of spermine on this danger signaling biomolecule is well established. […] It could be that the tumor's propensity to secrete higher concentrations of spermine allow them to hide from the immune system by negating HMGB1 ability to stimulate an immune response. Therefore, the balance between pro-immune effects of HMGB1 and the counter-immune effects of spermine mediated through this pathway may be shifted by using PBT.

What does the source list for `CCCCCCCCCCCCCCCC(=O)NCCCC[C@@H](N)C(=O)NCCCNCCCCNCCCN` [AMXT 1501, D-Lys(C16acyl)-Spm]?
activity on TLR7 [1]: no significant activity; stimulatory effect on human toll-like receptors [2]: no significant stimulatory effect

— patent publication US20150050299A1, “METHODS FOR ENHANCING IMMUNE RESPONSE” (priority 2010, published 2015)
